In publication PMC11581908 (Nature chemical biology, 2024):

Key:
[1] = molecular target: FKBP12 (Homo sapiens, UniProt P62942); format: cell-based
[2] = molecular target: T1, FBXO22 (Homo sapiens, UniProt Q8NEZ5); experiment: cysteine-directed ABPP in cells; format: cell-based
T1 sequence (Q8NEZ5 1-403): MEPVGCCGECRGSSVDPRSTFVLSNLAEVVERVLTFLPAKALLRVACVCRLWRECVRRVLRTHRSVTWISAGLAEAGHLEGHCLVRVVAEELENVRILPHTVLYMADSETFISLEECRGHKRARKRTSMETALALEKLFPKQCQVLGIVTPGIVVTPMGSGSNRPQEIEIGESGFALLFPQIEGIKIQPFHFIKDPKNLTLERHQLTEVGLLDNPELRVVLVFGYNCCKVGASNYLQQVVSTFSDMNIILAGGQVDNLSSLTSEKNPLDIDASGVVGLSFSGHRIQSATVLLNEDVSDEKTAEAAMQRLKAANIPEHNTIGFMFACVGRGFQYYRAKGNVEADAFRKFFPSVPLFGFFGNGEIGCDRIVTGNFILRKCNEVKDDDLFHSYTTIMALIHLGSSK

Sequence of FKBP12 (P62942 2-108): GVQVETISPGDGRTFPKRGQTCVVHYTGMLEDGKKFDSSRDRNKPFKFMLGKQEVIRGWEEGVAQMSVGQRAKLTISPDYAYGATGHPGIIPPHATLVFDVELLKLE

EC50 [1]: 1960 nM
% of C228 blocked at 2 μM [2]: ~ 20 % of C228 blocked at 2 μM
SMILES: CCC(C)(C)C(=O)C(=O)N1CCCC[C@H]1C(=O)O[C@H](CCc1ccc(OC)c(OC)c1)c1cccc(OCC(=O)NCCCOCCOCCOCCCN(C(=O)CCl)C(C(=O)NCc2ccccc2)c2nc3ccccc3s2)c1 (some centres unmarked) [compound 1, 22-SLF]
